Test results as given in patent US12545652B2, “Crystalline forms of a TYK2 inhibitor” (Sareum Limited, priority 2020, dated 2026).

Assay: Anti-solvent addition crystallisation at 60° C., observations and form fate by XRPD
Assay type: physicochemical
Settings: for Crystalline Form fate by XRPD: Addition at 60° C.
Procedure: The equilibration of Form A in a range of solvents with thermal modulation indicated a range of suitable solvents and anti-solvents. Consequently, Form A was dissolved in a range of four solvents at an elevated temperature, clarified and charged with anti-solvent at the elevated temperature to assess the propensity of the compound towards anti-solvent-driven crystallisation.
2-(2,6-dichlorophenyl)-5-[4-(1,1-dioxo-1,4-thiazinane-4-carbonyl)anilino]oxazole-4-carboxamide Form A, 4×150-152 mg, was weighed into four crystallisation tubes. Four different solvents (see Table 8) were then charged to the solids and the resulting mixtures heated to 60° C. Where suspensions persisted, additional solvent was charged to achieve dissolution. Upon dissolution of the four mixtures, the solutions were clarified and aliquots containing ca. 30 mg of the compound were charged to four crystallisation tubes.
To each of the four aliquots was charged an anti-solvent (see Table 8), ca. 5 vol., at 60° C. and immediate observations were made. Observations were made after equilibration for 1 hour before additional anti-solvent, 5 vol., was charged to all mixtures. Where suspensions or immiscible mixtures had formed, no further anti-solvent was charged. To all solutions and hazes, additional anti-solvent up to 20 vol. total charge was added.
The mixtures were equilibrated at 60° C. for another hour before cooling to 25° C. over ca. 3 hours and equilibrated for ca. 14½ hours. […] Upon isolation, all solids were dried in vacuo under air for ca. 1 hour and then dried in the oven in vacuo at 45° C. for 70 hours.

NC(=O)c1nc(-c2c(Cl)cccc2Cl)oc1Nc1ccc(C(=O)N2CCS(=O)(=O)CC2)cc1 [Form A, 2-(2,6-dichlorophenyl)-5-[4-(1,1-dioxo-1,4-thiazinane-4-carbonyl)anilino]oxazole-4-carboxamide]
Gum: Observation on outcome (ID A1, THF/water, 4:1 10 vol., Cyclohexane, 60° C., 5 vol. anti-solvent, Immediate) | Observation on outcome (ID A2, THF/water, 4:1 10 vol., Heptane, 60° C., 5 vol. anti-solvent, Immediate)
Form B: Crystalline Form fate by XRPD (Nitromethane 50 vol., Benzotrifluoride) | Crystalline Form fate by XRPD (Nitromethane 50 vol., Heptane) | Crystalline Form fate by XRPD (THF 25 vol., 2-Chlorobutane) | Crystalline Form fate by XRPD (THF 25 vol., Benzotrifluoride) | Crystalline Form fate by XRPD (THF 25 vol., Heptane)
Susp.: Observation on outcome (ID A1, THF/water, 4:1 10 vol., Cyclohexane, 25° C., 20 vol, 19 Hrs) | Observation on outcome (ID A1, THF/water, 4:1 10 vol., Cyclohexane, 60° C., 5 vol. anti-solvent, 1 Hr) | Observation on outcome (ID A1, THF/water, 4:1 10 vol., Cyclohexane, 60° C., 10 vol. anti-solvent) | Observation on outcome (ID A2, THF/water, 4:1 10 vol., Heptane, 60° C., 5 vol. anti-solvent, 1 Hr) | Observation on outcome (ID A2, THF/water, 4:1 10 vol., Heptane, 60° C., 10 vol. anti-solvent) | Observation on outcome (ID A3, THF/water, 4:1 10 vol., Benzotrifluoride, 25° C., 20 vol, 19 Hrs) | Observation on outcome (ID A3, THF/water, 4:1 10 vol., Benzotrifluoride, 60° C., 5 vol. anti-solvent, 1 Hr) | Observation on outcome (ID A3, THF/water, 4:1 10 vol., Benzotrifluoride, 60° C., 5 vol. anti-solvent, Immediate) | Observation on outcome (ID A3, THF/water, 4:1 10 vol., Benzotrifluoride, 60° C., 10 vol. anti-solvent) | Observation on outcome (ID A4, THF/water, 4:1 10 vol., 2-Chlorobutane, 25° C., 20 vol, 19 Hrs) | Observation on outcome (ID A4, THF/water, 4:1 10 vol., 2-Chlorobutane, 60° C., 5 vol. anti-solvent, 1 Hr) | Observation on outcome (ID A4, THF/water, 4:1 10 vol., 2-Chlorobutane, 60° C., 5 vol. anti-solvent, Immediate) | Observation on outcome (ID A4, THF/water, 4:1 10 vol., 2-Chlorobutane, 60° C., 10 vol. anti-solvent) | Observation on outcome (ID B1, THF 25 vol., Cyclohexane, 25° C., 20 vol, 19 Hrs) | Observation on outcome (ID B1, THF 25 vol., Cyclohexane, 60° C., 5 vol. anti-solvent, 1 Hr) | Observation on outcome (ID B1, THF 25 vol., Cyclohexane, 60° C., 10 vol. anti-solvent) | Observation on outcome (ID B2, THF 25 vol., Heptane, 25° C., 20 vol, 19 Hrs) | Observation on outcome (ID B2, THF 25 vol., Heptane, 60° C., 5 vol. anti-solvent, 1 Hr) | Observation on outcome (ID B2, THF 25 vol., Heptane, 60° C., 10 vol. anti-solvent) | Observation on outcome (ID B3, THF 25 vol., Benzotrifluoride, 25° C., 20 vol, 19 Hrs) | Observation on outcome (ID B3, THF 25 vol., Benzotrifluoride, 60° C., 5 vol. anti-solvent, 1 Hr) | Observation on outcome (ID B3, THF 25 vol., Benzotrifluoride, 60° C., 10 vol. anti-solvent) | Observation on outcome (ID B4, THF 25 vol., 2-Chlorobutane, 25° C., 20 vol, 19 Hrs) | Observation on outcome (ID B4, THF 25 vol., 2-Chlorobutane, 60° C., 5 vol. anti-solvent, 1 Hr) | Observation on outcome (ID B4, THF 25 vol., 2-Chlorobutane, 60° C., 10 vol. anti-solvent) | Observation on outcome (ID C3, Nitromethane 50 vol., Benzotrifluoride, 25° C., 20 vol, 19 Hrs) | Observation on outcome (ID C4, Nitromethane 50 vol., 2-Chlorobutane, 25° C., 20 vol, 19 Hrs) | Observation on outcome (ID D3, MeCN/water, 4:1 55 vol., Benzotrifluoride, 25° C., 20 vol, 19 Hrs)
Immiscible: Observation on outcome (ID C1, Nitromethane 50 vol., Cyclohexane, 60° C., 5 vol. anti-solvent, 1 Hr) | Observation on outcome (ID C1, Nitromethane 50 vol., Cyclohexane, 60° C., 5 vol. anti-solvent, Immediate) | Observation on outcome (ID C1, Nitromethane 50 vol., Cyclohexane, 60° C., 10 vol. anti-solvent) | Observation on outcome (ID D1, MeCN/water, 4:1 55 vol., Cyclohexane, 25° C., 20 vol, 19 Hrs) | Observation on outcome (ID D1, MeCN/water, 4:1 55 vol., Cyclohexane, 60° C., 5 vol. anti-solvent, 1 Hr) | Observation on outcome (ID D1, MeCN/water, 4:1 55 vol., Cyclohexane, 60° C., 5 vol. anti-solvent, Immediate) | Observation on outcome (ID D1, MeCN/water, 4:1 55 vol., Cyclohexane, 60° C., 10 vol. anti-solvent) | Observation on outcome (ID D2, MeCN/water, 4:1 55 vol., Heptane, 60° C., 5 vol. anti-solvent, 1 Hr) | Observation on outcome (ID D2, MeCN/water, 4:1 55 vol., Heptane, 60° C., 5 vol. anti-solvent, Immediate) | Observation on outcome (ID D2, MeCN/water, 4:1 55 vol., Heptane, 60° C., 10 vol. anti-solvent) | Observation on outcome (ID D3, MeCN/water, 4:1 55 vol., Benzotrifluoride, 60° C., 15 vol. anti-solvent) | Observation on outcome (ID D3, MeCN/water, 4:1 55 vol., Benzotrifluoride, 60° C., 20 vol. anti-solvent)
Form C +: Crystalline Form fate by XRPD (Nitromethane 50 vol., 2-Chlorobutane)
Form A: Crystalline Form fate by XRPD (MeCN/water, 4:1 55 vol., 2-Chlorobutane) | Crystalline Form fate by XRPD (MeCN/water, 4:1 55 vol., Benzotrifluoride) | Crystalline Form fate by XRPD (MeCN/water, 4:1 55 vol., Heptane) | Crystalline Form fate by XRPD (THF/water, 4:1 10 vol., 2-Chlorobutane) | Crystalline Form fate by XRPD (THF/water, 4:1 10 vol., Benzotrifluoride)
Bi. Susp.: Observation on outcome (ID C1, Nitromethane 50 vol., Cyclohexane, 25° C., 20 vol, 19 Hrs) | Observation on outcome (ID C2, Nitromethane 50 vol., Heptane, 25° C., 20 vol, 19 Hrs) | Observation on outcome (ID D2, MeCN/water, 4:1 55 vol., Heptane, 25° C., 20 vol, 19 Hrs) | Observation on outcome (ID D4, MeCN/water, 4:1 55 vol., 2-Chlorobutane, 25° C., 20 vol, 19 Hrs)
Gum→Soln.: Observation on outcome (ID B1, THF 25 vol., Cyclohexane, 60° C., 5 vol. anti-solvent, Immediate) | Observation on outcome (ID B2, THF 25 vol., Heptane, 60° C., 5 vol. anti-solvent, Immediate)
Gummy: Observation on outcome (ID A2, THF/water, 4:1 10 vol., Heptane, 25° C., 20 vol, 19 Hrs)
Soln.: Observation on outcome (ID B3, THF 25 vol., Benzotrifluoride, 60° C., 5 vol. anti-solvent, Immediate) | Observation on outcome (ID B4, THF 25 vol., 2-Chlorobutane, 60° C., 5 vol. anti-solvent, Immediate) | Observation on outcome (ID C2, Nitromethane 50 vol., Heptane, 60° C., 5 vol. anti-solvent, 1 Hr) | Observation on outcome (ID C2, Nitromethane 50 vol., Heptane, 60° C., 5 vol. anti-solvent, Immediate) | Observation on outcome (ID C2, Nitromethane 50 vol., Heptane, 60° C., 10 vol. anti-solvent) | Observation on outcome (ID C2, Nitromethane 50 vol., Heptane, 60° C., 15 vol. anti-solvent) | Observation on outcome (ID C2, Nitromethane 50 vol., Heptane, 60° C., 20 vol. anti-solvent) | Observation on outcome (ID C3, Nitromethane 50 vol., Benzotrifluoride, 60° C., 5 vol. anti-solvent, 1 Hr) | Observation on outcome (ID C3, Nitromethane 50 vol., Benzotrifluoride, 60° C., 5 vol. anti-solvent, Immediate) | Observation on outcome (ID C3, Nitromethane 50 vol., Benzotrifluoride, 60° C., 10 vol. anti-solvent) | Observation on outcome (ID C3, Nitromethane 50 vol., Benzotrifluoride, 60° C., 15 vol. anti-solvent) | Observation on outcome (ID C3, Nitromethane 50 vol., Benzotrifluoride, 60° C., 20 vol. anti-solvent) | Observation on outcome (ID C4, Nitromethane 50 vol., 2-Chlorobutane, 60° C., 5 vol. anti-solvent, 1 Hr) | Observation on outcome (ID C4, Nitromethane 50 vol., 2-Chlorobutane, 60° C., 5 vol. anti-solvent, Immediate) | Observation on outcome (ID C4, Nitromethane 50 vol., 2-Chlorobutane, 60° C., 10 vol. anti-solvent) | Observation on outcome (ID C4, Nitromethane 50 vol., 2-Chlorobutane, 60° C., 15 vol. anti-solvent) | Observation on outcome (ID C4, Nitromethane 50 vol., 2-Chlorobutane, 60° C., 20 vol. anti-solvent) | Observation on outcome (ID D3, MeCN/water, 4:1 55 vol., Benzotrifluoride, 60° C., 5 vol. anti-solvent, 1 Hr) | Observation on outcome (ID D3, MeCN/water, 4:1 55 vol., Benzotrifluoride, 60° C., 5 vol. anti-solvent, Immediate) | Observation on outcome (ID D4, MeCN/water, 4:1 55 vol., 2-Chlorobutane, 60° C., 5 vol. anti-solvent, 1 Hr) | Observation on outcome (ID D4, MeCN/water, 4:1 55 vol., 2-Chlorobutane, 60° C., 5 vol. anti-solvent, Immediate)
Haze: Observation on outcome (ID D3, MeCN/water, 4:1 55 vol., Benzotrifluoride, 60° C., 10 vol. anti-solvent) | Observation on outcome (ID D4, MeCN/water, 4:1 55 vol., 2-Chlorobutane, 60° C., 10 vol. anti-solvent) | Observation on outcome (ID D4, MeCN/water, 4:1 55 vol., 2-Chlorobutane, 60° C., 15 vol. anti-solvent) | Observation on outcome (ID D4, MeCN/water, 4:1 55 vol., 2-Chlorobutane, 60° C., 20 vol. anti-solvent)
